Literature values, collected in patent publication US20100322881A1, “UVB FILTER BASED ON ASCORBIC ACID DERIVATIVES” (MERCK PATENT GESELLSCHAFT, priority 2008, published 2010).

System: prolyl-4-hydroxylase
Conditions: literature statement; for supporting the activity of the enzyme prolyl-4-hydroxylase: Biochem. J. 1994, 300, 75-79

Structure (SMILES)	affinity to the enzyme (compared with the monosubstituted compound)	supporting the activity of the enzyme prolyl-4-hydroxylase
CC(=O)Oc1ccccc1C(=O)OC[C@H](OC(=O)c1ccccc1OC(C)=O)[C@H]1OC(=O)C(O)=C1O [O^5O^6-bis(2-acetoxybenzoyl) L-ascorbate]	lower affinity	capable of supporting the activity
CC(=O)Oc1ccccc1C(=O)OC[C@H](O)[C@H]1OC(=O)C(O)=C1O [O^6-(2-acetoxybenzoyl) L-ascorbate]		capable of supporting the activity
